From patent US10221426B2, “Constitutively active PYR/PYL receptor proteins for improving plant stress tolerance” (The Regents of the University of California, priority 2009, dated 2019)

Tested on: Arabidopsis seeds
Assay: Seed germination inhibition
Format: in vivo
Conditions: for amount required to ensure 100% inhibition of germination: scored 3 days post-imbibition, dose curve analyses
Description: FIG. 1. Pyrabactin is a seed selective ABA agonist. (A) Structures of molecules described in this study. (B) Pyrabactin activity is suppressed by abi1-1. Seeds of the genotype shown at top were imbibed on media containing 25 μM pyrabactin and scored for germination 4 days after stratification. Shown at bottom are IC50 values for pyrabactin's germination effect on the genotypes characterized. (C) Microarray comparison of pyrabactin and ABA treatments in seeds. The Y-axis plots the log2 transformed value for a probe's response to 25 μM pyrabactin (relative to untreated control) and the X-axis a probe's response to 1 μM ABA. […] (D) Microarray comparison of cycloheximide and ABA responses in seeds. […] (E) Microarray comparison of pyrabactin and ABA responses in seedlings. Seven-day old seedlings were transferred to 10 μM ABA or 50 μM pyrabactin containing plates for 24 hours and then mRNA samples profiled. Inset in each scatter plot is the Pearson correlation coefficient for each comparison. Detailed microarray methods are described in the Examples section.
FIG. 2. PYR1 encodes an ABA responsive START-domain protein. (A) Pyr1 alleles. Shown are the allele names, strain names (in parentheses) and amino acid changes caused by the Pyr1 mutant alleles identified by screening for pyrabactin resistant mutations. (B) Pictographic representation of Pyr1 and Pyl1-Pyl4 expression values housed in public microarray databases. The heatmap shown at top right is for the first upper three panels and the bottom heatmap for the guard cell data. Plots were made using the eFP browser (D. Winter et al., PLoS ONE 2, e718 (2007)). (C) 35S::GFP-PYR1 complements pyr1-1. Seeds of the genotypes shown were stratified 4 days on 25 μM pyrabactin and then germinated at RT, 90% RH for 3 days in darkness. […] (D) Pyr/Pyls are required for normal ABA-induced gene expression in seedlings. Shown are qRT-PCR results for the ABA-responsive gene RD29. L, Ler; C, Col; and Q, quadruple mutant. (E) Pyr/Pyl genes are required for normal ABA-induced stress-induced gene expression in seedlings. Shown are qRT-PCR results for two ABA-responsive taqman probes, as described in the Examples section. L=Ler, C=Col, Q=quadruple mutant.
As part of an earlier effort, we identified a germination inhibitor named pyrabactin (Y. Zhao et al., Nat Chem Biol 3, 716 (2007)). […] To test this hypothesis, we examined the pyrabactin sensitivity of mutant lines with altered ABA signaling, biosynthesis or gibberellic acid (GA) perception.
We next performed microarray experiments to evaluate the similarity of the transcriptional responses induced by ABA and pyrabactin treatments. For microarray, tissue was prepared and RNA extracted from Columbia wild type seeds sown on 0.5×MS media (˜2500 seeds per 150 mm plate) containing either 1 μM ABA, 25 μM pyrabactin, 25 μM 2,4-Dinitrophenol (DNP), 1 μM cycloheximide, 2 μM methotrexate or 1% DMSO control plates (all chemicals are dissolved in DMSO). The concentrations utilized for these experiments were normalized for germination inhibition activity by dose curve analyses, i.e. the amount of both compounds required to ensure 100% inhibition of germination when scored 3 days post-imbibition. ABA (±stereoisomers), DNP, cycloheximide and methotrexate were purchased from Sigma Aldrich. Seeds were stratified for 4 days and then incubated in the dark at room temperature for 24 hours. […]

SMILES | amount required to ensure 100% inhibition of germination [µM] | effect on germination (in vivo) | germination of Columbia wild type seeds (stratified 4 days on 25 μM pyrabactin, germinated at RT, 90% RH for 3 days in darkness)
CC1=CC(=O)CC(C)(C)[C@@]1(O)/C=C/C(C)=C\C(=O)O [ABA, Abscisic acid] | 1 |  | 
O=S(=O)(NCc1ccccn1)c1ccc(Br)c2ccccc12 [pyrabactin] | 25 | inhibits germination | unable to germinate
